Results reported in the supplement of paper PMC10307832.

The cell lines below were run with C1CSC2=C(C(=O)N1)SC3=C2C=C(C=C3)O [kb NB 142-70] + CC(C)C[C@H](NC(=O)[C@H](Cc1ccccc1)NC(=O)c1cnccn1)B(O)O [Bortezomib] (partner 0.002 µM) (assay: relative viability (nuclei count vs DMSO), 5 days (fraction); higher = more cells survive). Details: first compound 0.1 µM.
Method in brief: (§1)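 Relative viability equals treated-well nuclei counts divided by vehicle-well nuclei counts. Counts came from 4× images of lung cancer cell lines grown in 1536-well plates for 5 days after pin-tool dosing on the day after seeding. Dosing used one drug alone or a fixed anchor-drug dose plus five library-drug doses (not always all listed) in √10 steps, and values are medians of duplicate plates.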

Going from RERF-LC-KJ to NCI-H650, the relative viability falls from 1.18 to 0.845.

For PC-3 [JPC-3], the relative viability was 0.8.

Same assay, conditions: first compound 1 µM

Compared with RERF-LC-KJ, NCI-H650 is lower in relative viability: 1.29 for the first, 0.719 for the second.

PC-3 [JPC-3] showed a relative viability of 0.83.

Same assay, conditions: first compound 3.162 µM

Going from RERF-LC-KJ to NCI-H650, the relative viability falls from 0.946 to 0.561.

Cell Line PC-3 [JPC-3] has a relative viability of 0.898.

These cell lines were tested with NCC(=O)Nc1ccc(-n2nc(C(F)(F)F)cc2-c2ccc3c(ccc4ccccc43)c2)cc1 + NC(=O)Nc1cc(-c2cccc(F)c2)sc1C(=O)N[C@H]1CCCNC1 [AZD7762] (partner 0.2 µM) in the same assay as above. Details: first compound 0.02 µM.
Method in brief: as §1

Compared with RERF-LC-KJ, NCI-H650 is higher in relative viability: 0.959 for the first, 0.988 for the second.

PC-3 [JPC-3] showed a relative viability of 0.792.

Same assay, conditions: first compound 0.06325 µM

First: RERF-LC-KJ
Second: NCI-H650
The relative viability of the first is lower: 0.863 for the first, 1.12 for the second.

PC-3 [JPC-3] was tested, and the relative viability was 0.873.

Same assay, conditions: first compound 0.2 µM

First: RERF-LC-KJ
Second: NCI-H650
The relative viability of the first is lower: 0.996 for the first, 1.08 for the second.

PC-3 [JPC-3] showed a relative viability of 0.85.

Same assay, conditions: first compound 0.6325 µM

Going from RERF-LC-KJ to NCI-H650, the relative viability falls from 1.12 to 1.02.

With PC-3 [JPC-3] the relative viability was 0.88.

Same assay, conditions: first compound 2 µM

Compared with RERF-LC-KJ, NCI-H650 is higher in relative viability: 1.03 for the first, 1.05 for the second.

PC-3 [JPC-3] showed a relative viability of 0.832.

The cell lines below were run with C1CSC2=C(C(=O)N1)SC3=C2C=C(C=C3)O [kb NB 142-70] + CC(=O)Nc1cccc(-n2c(=O)n(C3CC3)c(=O)c3c(Nc4ccc(I)cc4F)n(C)c(=O)c(C)c32)c1 [Trametinib] (partner 0.02 µM) in the same assay as above. Details: first compound 0.1 µM.
Method in brief: as §1

Compared with RERF-LC-KJ, NCI-H650 is higher in relative viability: 0.914 for the first, 0.939 for the second.

Cell Line PC-3 [JPC-3] has a relative viability of 0.685.

Same assay, conditions: first compound 1 µM

Going from RERF-LC-KJ to NCI-H650, the relative viability rises from 0.928 to 1.22.

PC-3 [JPC-3] gave a relative viability of 0.726.

Same assay, conditions: first compound 3.162 µM

Compared with RERF-LC-KJ, NCI-H650 is higher in relative viability: 0.805 for the first, 0.895 for the second.

Cell Line PC-3 [JPC-3] has a relative viability of 0.643.

These cell lines were tested with NCC(=O)Nc1ccc(-n2nc(C(F)(F)F)cc2-c2ccc3c(ccc4ccccc43)c2)cc1 + C[C@@H](Oc1cc(-c2cnn(C3CCNCC3)c2)cnc1N)c1c(Cl)ccc(F)c1Cl [Crizotinib] (partner 1 µM) in the same assay as above. Details: first compound 0.02 µM.
Method in brief: as §1

Going from RERF-LC-KJ to NCI-H650, the relative viability falls from 0.867 to 0.728.

PC-3 [JPC-3] showed a relative viability of 1.01.

Same assay, conditions: first compound 0.06325 µM

Going from RERF-LC-KJ to NCI-H650, the relative viability falls from 0.845 to 0.809.

Work on PC-3 [JPC-3] yielded a relative viability of 1.03.

Same assay, conditions: first compound 0.2 µM

First: RERF-LC-KJ
Second: NCI-H650
The relative viability of the first is higher: 0.847 for the first, 0.72 for the second.

With PC-3 [JPC-3] the relative viability was 0.996.

Same assay, conditions: first compound 0.6325 µM

Going from RERF-LC-KJ to NCI-H650, the relative viability falls from 0.791 to 0.653.

In the case of PC-3 [JPC-3], the relative viability is reported as 0.959.

Same assay, conditions: first compound 2 µM

First: RERF-LC-KJ
Second: NCI-H650
The relative viability of the first is higher: 0.809 for the first, 0.802 for the second.

For PC-3 [JPC-3], the relative viability was 0.99.

What follows are cell lines tested with C1CSC2=C(C(=O)N1)SC3=C2C=C(C=C3)O [kb NB 142-70] + Nc1ncn([C@H]2C[C@H](O)[C@@H](CO)O2)c(=O)n1 [Decitabine] (partner 2 µM) in the same assay as above. Details: first compound 0.1 µM.
Method in brief: as §1

Going from RERF-LC-KJ to NCI-H650, the relative viability falls from 0.681 to 0.309.

PC-3 [JPC-3] was tested, and the relative viability was 0.831.

Same assay, conditions: first compound 1 µM

First: RERF-LC-KJ
Second: NCI-H650
The relative viability of the first is higher: 0.664 for the first, 0.283 for the second.

PC-3 [JPC-3] showed a relative viability of 0.833.

Same assay, conditions: first compound 3.162 µM

Compared with RERF-LC-KJ, NCI-H650 is lower in relative viability: 0.482 for the first, 0.267 for the second.

Work on PC-3 [JPC-3] yielded a relative viability of 0.871.
